{
  "source": "patent US20200239398A1",
  "about": "“METHYLENE-CYCLOALKYLACETATE DERIVATIVES AND THEIR USE IN TREATMENT OF NEUROTROPIC CONDITIONS” (Yissum Research Development Company of The Hebrew …, priority 2018, published 2020)",
  "key": {"[1]": {"target": "Cannabinoid Receptor 2 (CNR2) (Homo sapiens, UniProt P34972)", "sequence (P34972 whole entry)": "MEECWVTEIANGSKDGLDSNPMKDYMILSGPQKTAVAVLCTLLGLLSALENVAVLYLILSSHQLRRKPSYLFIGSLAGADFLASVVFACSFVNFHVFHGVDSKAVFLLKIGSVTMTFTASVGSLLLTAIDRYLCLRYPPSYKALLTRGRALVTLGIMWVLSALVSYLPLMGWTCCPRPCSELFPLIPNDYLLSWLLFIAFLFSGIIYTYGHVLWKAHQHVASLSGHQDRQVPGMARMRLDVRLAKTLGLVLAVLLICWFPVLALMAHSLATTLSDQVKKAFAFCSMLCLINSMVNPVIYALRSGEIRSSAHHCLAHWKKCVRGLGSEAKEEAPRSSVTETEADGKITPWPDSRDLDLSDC", "test": "SAFETYscan CNR2 cAMP", "format": "cell-based", "conditions": "10 μM HU-MCA-13; for Emax: read-out: Maximal Response"}, "[2]": {"tested_on": "male C57BL/6 mice", "test": "Sensory motor/neurological-neurobehavioral tests (mNSS)", "format": "in vivo", "conditions": "250 mg/kg iv; for Angle of increase / Beam balance (score) / Hind limb (placing test score) / mNSS / Foot fault / Self-suspension time: individual animal; for Foot fault / Self-suspension time: listed as HU-MCA-13, 250 mg/kg", "description": "This pilot study was conducted to obtain acute information of the dose toxicity of HU-MCA-13 (Compound 13 in Scheme 1) in male mice. Male C57BL/6 mice, were injected intravenously with 0.2 ml of HU-MCA-13 in a dose of 250 mg/kg. Mice were monitored for 4 consecutive weeks for autonomic and neurotoxicity symptoms. The mortality and changes on body weight, clinical signs, gross observation, were monitored up to 30 days after treatment. No mortality was found at this high dose of 250 mg/kg. […] The mice were examined once a week for autonomic symptoms by measuring salivation, urinary delivery, pupillary constriction, heart rate, blood pressure, and hair contraction. […] Occurrences of either flaccid or spastic paralysis of the legs were not observed. […] Furthermore, no mice sudden deaths occurred within 24 hours after the injection or during the 4 weeks of observation. […] Sensory motor tests were scored individually and according to the modified neurologic function severity score (mNSS). The data from each individual test and the total score calculated from individual tests that make up the mNSS were measured. The following assays were used: a. beam balance test—mice were placed on a 1-inch wide beam for 60 seconds. A normal response is balance with steady posture for 60 seconds (a score of 0). Deficits are scored if the rat: grasps the side of the beam (a score of 1), hugs the beam and one limb falls down from the beam (a score of 2), hugs the beam and two limbs fall off the beam (a score of 3), attempts to balance on the beam, but falls off from 60 seconds (a score of 4), attempts to balance on the beam but falls off from […], or falls off with no attempt to balance or hang on the beam in <20 seconds (a score of 6); b. foot fault test—forelimb movement dysfunction, while walking on elevated metal grids, was monitored. The animal was placed on horizontal grids (85.5×26.5×20) cm with a glass enclosure for observation. With each weight bearing step, the forelimb can fall or slip between the metal support bars, an event recorded as a foot fault. The total number of forelimb steps and the total number of foot faults were recorded. The percentage of forelimb foot faults to the total steps that occurred within 2 minutes marks the test results; c. hind limb placing test—This test monitors reposition of hind limbs placed down and away from the table edge. The ability to retrieve and place the hind limbs back onto the table was scored. Immediate and complete limb retrieval was scored 0, delayed (>2 seconds) limb retrieval and/or interspersed flailing was scored 1, and no limb retrieval was scored 2; d. Increasing platform angle to slide test—This test monitors the strength and stability of resistance to slide down an inclined platform. It deploys a clean wooden board (60 cm by 40 cm) positioned horizontally. Mice were placed on the board with head facing up the increasing incline. The board then swings to increase the degree of inclination the rat experiences until slipping down the board feet first. The degree of the angle at which the rat relinquishes their grip/stance on the board (slips down) constitute the test results; e. the forelimb whole body suspension test—The test measures grip strength by duration of suspension by forepaws. The rat is suspended on a metal bar (diameter 5 mm) which it tightly holds onto by its forelimbs. The time (seconds) during which each rat could sustain its body weight while holding onto the bar is recorded. The mice drop from the bar onto soft material with no harm. The test was repeated three times and a mean result per rat was used as the score. Cumulatively these sensory motor/neurological findings indicate acute tolerability of 250 mg/kg HU-MCA-13 iv injection in Male C57BL/6 mice."}, "[3]": {"target": "T1, Insulin Receptor (tyrosine kinase) (INSR) (Homo sapiens, UniProt P06213)", "T1 construct": "DiscoverX (KINOMEscan)", "T1 sequence (P06213 28-1382)": "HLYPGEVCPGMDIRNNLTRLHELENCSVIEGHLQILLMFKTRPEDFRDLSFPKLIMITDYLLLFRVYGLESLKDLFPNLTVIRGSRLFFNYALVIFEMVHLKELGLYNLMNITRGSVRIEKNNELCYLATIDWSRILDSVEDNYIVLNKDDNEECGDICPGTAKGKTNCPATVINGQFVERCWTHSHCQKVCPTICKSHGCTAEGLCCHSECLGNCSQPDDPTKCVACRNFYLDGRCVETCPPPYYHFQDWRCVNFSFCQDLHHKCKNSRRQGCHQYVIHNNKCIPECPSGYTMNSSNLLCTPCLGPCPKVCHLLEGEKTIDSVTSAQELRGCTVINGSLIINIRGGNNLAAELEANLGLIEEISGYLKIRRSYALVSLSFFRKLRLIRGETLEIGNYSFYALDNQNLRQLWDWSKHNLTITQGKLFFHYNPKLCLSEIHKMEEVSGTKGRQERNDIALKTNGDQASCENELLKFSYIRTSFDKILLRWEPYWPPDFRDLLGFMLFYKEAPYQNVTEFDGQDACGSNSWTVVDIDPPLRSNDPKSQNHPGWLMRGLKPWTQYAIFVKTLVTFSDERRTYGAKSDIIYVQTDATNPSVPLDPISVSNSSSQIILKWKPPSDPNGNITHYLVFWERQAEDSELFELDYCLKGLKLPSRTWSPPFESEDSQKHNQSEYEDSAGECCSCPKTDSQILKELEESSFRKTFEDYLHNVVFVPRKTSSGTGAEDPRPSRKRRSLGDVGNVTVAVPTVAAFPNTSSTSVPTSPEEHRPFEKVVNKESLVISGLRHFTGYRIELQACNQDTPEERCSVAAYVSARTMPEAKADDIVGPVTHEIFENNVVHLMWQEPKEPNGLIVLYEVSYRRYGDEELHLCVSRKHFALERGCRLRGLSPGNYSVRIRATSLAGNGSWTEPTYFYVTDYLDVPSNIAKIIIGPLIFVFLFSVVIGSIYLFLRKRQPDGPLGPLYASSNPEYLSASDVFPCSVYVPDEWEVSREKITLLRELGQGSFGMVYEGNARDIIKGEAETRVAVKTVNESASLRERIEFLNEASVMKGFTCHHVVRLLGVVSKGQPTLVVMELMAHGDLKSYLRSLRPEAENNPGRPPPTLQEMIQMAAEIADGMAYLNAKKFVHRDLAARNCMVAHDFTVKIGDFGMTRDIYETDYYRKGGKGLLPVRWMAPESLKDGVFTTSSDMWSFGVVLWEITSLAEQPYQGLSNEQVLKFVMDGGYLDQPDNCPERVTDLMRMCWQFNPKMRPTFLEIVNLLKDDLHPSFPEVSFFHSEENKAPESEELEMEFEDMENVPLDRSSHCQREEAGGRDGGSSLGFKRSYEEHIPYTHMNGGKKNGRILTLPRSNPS", "test": "SAFETYscan INSR kinase Binding", "conditions": "Inhibitor mode, 10 μM HU-MCA-13, read-out: Maximal Response"}, "[4]": {"target": "T2, Nuclear Hormone Androgen Receptor (AR) (Homo sapiens, UniProt P10275)", "T2 construct": "DiscoverX (SAFETYscan contract panel)", "T2 sequence (P10275 whole entry)": "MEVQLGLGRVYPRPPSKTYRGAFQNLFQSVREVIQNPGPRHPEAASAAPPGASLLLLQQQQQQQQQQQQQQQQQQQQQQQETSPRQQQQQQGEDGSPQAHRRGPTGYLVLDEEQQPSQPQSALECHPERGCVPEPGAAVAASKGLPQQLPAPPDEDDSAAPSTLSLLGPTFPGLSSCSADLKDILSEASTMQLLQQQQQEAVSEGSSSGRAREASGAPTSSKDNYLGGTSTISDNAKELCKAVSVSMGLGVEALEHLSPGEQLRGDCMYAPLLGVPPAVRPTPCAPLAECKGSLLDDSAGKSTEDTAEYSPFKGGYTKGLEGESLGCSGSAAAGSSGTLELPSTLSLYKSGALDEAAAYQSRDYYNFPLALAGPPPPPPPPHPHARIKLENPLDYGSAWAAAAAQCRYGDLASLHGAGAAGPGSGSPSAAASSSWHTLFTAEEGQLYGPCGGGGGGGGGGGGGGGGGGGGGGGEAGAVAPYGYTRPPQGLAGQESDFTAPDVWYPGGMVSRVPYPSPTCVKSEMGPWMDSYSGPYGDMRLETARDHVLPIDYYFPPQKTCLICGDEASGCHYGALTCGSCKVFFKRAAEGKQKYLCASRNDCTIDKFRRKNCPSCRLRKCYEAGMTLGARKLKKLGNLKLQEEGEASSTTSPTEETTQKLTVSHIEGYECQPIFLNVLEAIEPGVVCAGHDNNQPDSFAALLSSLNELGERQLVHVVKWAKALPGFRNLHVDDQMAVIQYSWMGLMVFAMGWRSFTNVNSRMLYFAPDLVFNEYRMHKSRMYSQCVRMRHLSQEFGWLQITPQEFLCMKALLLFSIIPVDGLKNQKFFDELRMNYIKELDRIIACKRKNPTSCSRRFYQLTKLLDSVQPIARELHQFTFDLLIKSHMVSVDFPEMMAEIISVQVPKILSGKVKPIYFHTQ", "test": "SAFETYscan AR Nuclear Hormone Receptor Translocation", "format": "cell-based", "conditions": "10 μM HU-MCA-13"}, "[5]": {"target": "T3, Kv7.1/KCNE Potassium voltage-gated channel (KvLQT1/minK) (Homo sapiens, UniProt P51787)", "T3 construct": "DiscoverX (SAFETYscan contract panel)", "test": "SAFETYscan KvLQT1/minK Ion channel", "format": "cell-based", "conditions": "10 μM HU-MCA-13, read-out: Maximal Response"}, "[6]": {"target": "T4, Acetylcholinesterase (AChE) (Homo sapiens, UniProt P22303)", "T4 construct": "DiscoverX (SAFETYscan contract panel)", "T4 sequence (P22303 32-614)": "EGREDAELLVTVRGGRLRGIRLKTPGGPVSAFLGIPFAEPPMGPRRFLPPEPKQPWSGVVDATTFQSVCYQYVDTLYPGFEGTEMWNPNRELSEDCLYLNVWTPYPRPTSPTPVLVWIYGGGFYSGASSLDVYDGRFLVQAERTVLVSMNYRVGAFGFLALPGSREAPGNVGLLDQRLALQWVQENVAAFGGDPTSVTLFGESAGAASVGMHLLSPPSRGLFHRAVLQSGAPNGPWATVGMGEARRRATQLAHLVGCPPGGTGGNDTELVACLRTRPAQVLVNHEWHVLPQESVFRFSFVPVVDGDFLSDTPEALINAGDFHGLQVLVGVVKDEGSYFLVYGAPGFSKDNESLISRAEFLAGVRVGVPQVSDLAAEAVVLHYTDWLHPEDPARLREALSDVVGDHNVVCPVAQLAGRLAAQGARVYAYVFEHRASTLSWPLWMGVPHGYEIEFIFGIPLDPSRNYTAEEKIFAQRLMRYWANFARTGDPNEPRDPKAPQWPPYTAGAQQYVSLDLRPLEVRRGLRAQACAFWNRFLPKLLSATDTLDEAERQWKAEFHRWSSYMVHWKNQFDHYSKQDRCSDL", "test": "SAFETYscan AChE Enzymatic", "format": "biochemical", "conditions": "Inhibitor mode; 10 μM HU-MCA-13; read-out: Maximal Response"}, "[7]": {"target": "5-Hydroxytryptamine (Serotonin) Receptor 1A (HTR1A) (Homo sapiens, UniProt P08908)", "sequence (P08908 whole entry)": "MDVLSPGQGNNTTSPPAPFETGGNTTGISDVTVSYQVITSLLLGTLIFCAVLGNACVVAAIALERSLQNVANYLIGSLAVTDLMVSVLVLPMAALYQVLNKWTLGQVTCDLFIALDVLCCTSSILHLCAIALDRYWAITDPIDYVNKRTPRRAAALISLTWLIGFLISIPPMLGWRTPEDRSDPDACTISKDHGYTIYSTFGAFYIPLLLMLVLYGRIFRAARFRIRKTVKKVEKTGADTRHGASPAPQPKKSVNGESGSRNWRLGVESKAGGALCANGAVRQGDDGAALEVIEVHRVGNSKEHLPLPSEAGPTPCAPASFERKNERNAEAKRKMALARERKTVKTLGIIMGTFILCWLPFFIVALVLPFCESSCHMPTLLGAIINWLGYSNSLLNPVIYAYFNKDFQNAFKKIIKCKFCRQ", "test": "SAFETYscan HTR1A cAMP", "format": "cell-based", "conditions": "10 μM HU-MCA-13"}, "[8]": {"target": "Histamine Receptor H2 (HRH2) (Homo sapiens, UniProt P25021)", "sequence (P25021 whole entry)": "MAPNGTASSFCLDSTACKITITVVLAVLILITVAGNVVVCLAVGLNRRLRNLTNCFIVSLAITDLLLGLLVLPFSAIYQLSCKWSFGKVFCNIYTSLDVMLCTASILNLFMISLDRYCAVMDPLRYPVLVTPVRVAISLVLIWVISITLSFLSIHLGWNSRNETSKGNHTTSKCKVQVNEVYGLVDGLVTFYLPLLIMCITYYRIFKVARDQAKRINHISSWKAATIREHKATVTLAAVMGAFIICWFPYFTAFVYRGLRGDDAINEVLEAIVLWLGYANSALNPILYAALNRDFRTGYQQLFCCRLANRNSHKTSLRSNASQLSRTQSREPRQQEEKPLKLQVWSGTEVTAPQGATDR", "test": "SAFETYscan HRH2 cAMP", "format": "cell-based", "conditions": "10 μM HU-MCA-13; for Emax: read-out: Maximal Response"}, "[9]": {"target": "T5, hERG (Kv11.1) (Homo sapiens, UniProt Q12809)", "T5 construct": "DiscoverX (SAFETYscan contract panel)", "test": "in vitro", "format": "cell-based", "conditions": "Blocker mode, 10 μM HU-MCA-13, read-out: Maximal Response"}, "[10]": {"target": "T6, Vascular endothelial growth factor receptor 2 (KDR tyrosine kinase) (VEGFR2) (Homo sapiens, UniProt P35968)", "T6 construct": "DiscoverX (KINOMEscan)", "test": "SAFETYscan VEGFR2 kinase Binding", "conditions": "Inhibitor mode, 10 μM HU-MCA-13, read-out: Maximal Response"}, "[11]": {"target": "T7, Serotonin transporter (SERT) (Homo sapiens, UniProt P31645)", "T7 construct": "DiscoverX (SAFETYscan contract panel)", "test": "cell-based", "conditions": "Blocker mode; 10 μM HU-MCA-13; read-out: Maximal Response"}, "[12]": {"target": "T8, Nuclear Hormone Glucocorticoid Receptor (GR) (Homo sapiens, UniProt P04150)", "T8 construct": "DiscoverX (SAFETYscan contract panel)", "T8 sequence (P04150 whole entry)": "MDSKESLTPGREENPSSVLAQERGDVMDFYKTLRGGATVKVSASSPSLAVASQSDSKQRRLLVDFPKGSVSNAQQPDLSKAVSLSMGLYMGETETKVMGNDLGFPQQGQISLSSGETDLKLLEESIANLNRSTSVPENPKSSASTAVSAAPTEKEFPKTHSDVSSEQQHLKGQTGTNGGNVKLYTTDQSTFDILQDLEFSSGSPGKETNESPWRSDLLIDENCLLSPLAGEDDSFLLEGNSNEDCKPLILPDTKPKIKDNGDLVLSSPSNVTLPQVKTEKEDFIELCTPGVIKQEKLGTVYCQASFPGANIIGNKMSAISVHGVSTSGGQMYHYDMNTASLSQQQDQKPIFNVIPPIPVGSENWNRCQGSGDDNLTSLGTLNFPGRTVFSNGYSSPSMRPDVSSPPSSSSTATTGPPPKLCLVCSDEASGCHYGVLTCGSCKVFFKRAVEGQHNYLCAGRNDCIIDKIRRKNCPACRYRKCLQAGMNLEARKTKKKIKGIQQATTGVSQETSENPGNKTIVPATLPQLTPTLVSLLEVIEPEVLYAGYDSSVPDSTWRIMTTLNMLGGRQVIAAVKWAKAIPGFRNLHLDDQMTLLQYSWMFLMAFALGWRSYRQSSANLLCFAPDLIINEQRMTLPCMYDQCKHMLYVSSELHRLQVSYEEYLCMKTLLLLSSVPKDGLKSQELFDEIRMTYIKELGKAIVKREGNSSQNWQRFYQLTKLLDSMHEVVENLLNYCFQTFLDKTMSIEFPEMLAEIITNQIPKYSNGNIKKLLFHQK", "test": "SAFETYscan GR Nuclear Hormone Receptor Translocation", "format": "cell-based", "conditions": "10 μM HU-MCA-13, read-out: Maximal Response"}, "[13]": {"conditions": "read-out: Maximal Response, Agonist mode"}},
  "note": "Where “and” joins values, the source holds several entries; their conditions need not be identical. Equal values may be shown once. Read-outs that look alike come from different tables or passages of the source.",
  "data": [
    {"smiles": "C=CCC1CCC[C@@H](CCC(=O)O)C1=C", "note": "(some centres unmarked) [Compound 13]", "values": [
      {"measurement": "Maximal Response", "setting": "[1]; Agonist mode", "value": 49.59, "unit": "%"},
      {"measurement": "Emax", "setting": "[1]; Agonist mode", "value": 49.6, "unit": "%"},
      {"measurement": "Emax", "setting": "[1]; Antagonist mode", "value": 4.11, "unit": "%"},
      {"measurement": "sensory motor/neurological performance", "setting": "[2]; weekly routine motor tests", "value": "no neurological losses were observed"},
      {"measurement": "Angle of increase", "setting": "[2]; Day 0", "value": 35, "unit": "degrees"},
      {"measurement": "Beam balance (score)", "setting": "[2]; Day 0", "value": 0},
      {"measurement": "Hind limb (placing test score)", "setting": "[2]; Day 0", "value": 0},
      {"measurement": "mNSS", "setting": "[2]; Day 0", "value": 0},
      {"measurement": "Foot fault", "setting": "[2]; Day 0", "value": "0/34 and 0/41 and 0/38 and 1/48"},
      {"measurement": "Self-suspension time", "setting": "[2]; Day 0", "value": "8 seconds and 10 seconds (2×) and 9 seconds"},
      {"measurement": "Angle of increase", "setting": "[2]; Day 1", "value": 35, "unit": "degrees"},
      {"measurement": "Beam balance (score)", "setting": "[2]; Day 1", "value": 0},
      {"measurement": "Hind limb (placing test score)", "setting": "[2]; Day 1", "value": 0},
      {"measurement": "mNSS", "setting": "[2]; Day 1", "value": 0},
      {"measurement": "Foot fault", "setting": "[2]; Day 1", "value": "0/20 and 0/15 and 0/34 and 0/14"},
      {"measurement": "Self-suspension time", "setting": "[2]; Day 1", "value": "14 seconds and 12 seconds (2×) and 15 seconds"},
      {"measurement": "Angle of increase", "setting": "[2]; Day 5", "value": 35, "unit": "degrees"},
      {"measurement": "Beam balance (score)", "setting": "[2]; Day 5", "value": 0},
      {"measurement": "Hind limb (placing test score)", "setting": "[2]; Day 5", "value": 0},
      {"measurement": "mNSS", "setting": "[2]; Day 5", "value": 0},
      {"measurement": "Foot fault", "setting": "[2]; Day 5", "value": "2/50 and 1/47 and 0/48 and 0/36"},
      {"measurement": "Self-suspension time", "setting": "[2]; Day 5", "value": "13 seconds (2×) and 15 seconds and 14 seconds"},
      {"measurement": "Emax", "setting": "[3]", "value": 3.22, "unit": "%"},
      {"measurement": "Emax", "setting": "[4]; Antagonist mode, read-out: Maximal Response", "value": 5.27, "unit": "%"},
      {"measurement": "Emax", "setting": "[4]; [13]", "value": 0, "unit": "%"},
      {"measurement": "Emax", "setting": "[5]; Blocker mode", "value": 0.55, "unit": "%"},
      {"measurement": "Emax", "setting": "[5]; Opener mode", "value": 0, "unit": "%"},
      {"measurement": "Emax", "setting": "[6]", "value": 4.27, "unit": "%"},
      {"measurement": "Emax", "setting": "[7]; [13]", "value": 7.66, "unit": "%"},
      {"measurement": "Emax", "setting": "[7]; read-out: Maximal Response, Antagonist mode", "value": 0, "unit": "%"},
      {"measurement": "Emax", "setting": "[8]; Agonist mode", "value": 1.78, "unit": "%"},
      {"measurement": "Maximal Response", "setting": "[8]; Antagonist mode", "value": 26.94, "unit": "%"},
      {"measurement": "Emax", "setting": "[8]; Antagonist mode", "value": 26.9, "unit": "%"},
      {"measurement": "Emax at 10 μM", "setting": "[9]", "value": 0, "unit": "%"},
      {"measurement": "Emax", "setting": "[10]", "value": 21.7, "unit": "%"},
      {"measurement": "Emax", "setting": "[11]", "value": 15.4, "unit": "%"},
      {"measurement": "Emax", "setting": "[12]; Agonist mode", "value": 0, "unit": "%"},
      {"measurement": "Emax", "setting": "[12]; Antagonist mode", "value": 2.28, "unit": "%"}
    ]}
  ]
}
